{"source": "patent US7960133B2", "about": "“Methods of diagnosing leiomyoma by measuring catechol-O-methyltransferase” (The Board of Regents of the University of Texas System, priority 2003, dated 2011)", "format_in_all_cases": "cell-based, rat", "key": {"ELT3 cells": {"test_system": "ELT3 cells", "experiment": "ELT3 cell proliferation assay (Hoechst 33258 DNA quantitation)", "conditions": "for reduction in cell proliferation compared to the untreated control / cell proliferation increase from the control: estrogen-free", "protocol": "The Eker rat tumor-derived ELT-3 uterine leiomyoma cells were grown in DMEM medium supplemented with 10% fetal bovine serum and 1% antibiotics (containing 100 U/ml penicillin and 100 μg/ml streptomycin. The cells were maintained in the 100 mm tissue culture dishes at 37° C. air with 5% CO2 and 95% humidity. When experiments required the addition of exogenous compounds, cells were weaned by culturing for 48 h in phenol red-free medium containing 10% Charcoal-stripped fetal calf serum. For proliferation assays, cells were plated onto 24-well plates in DMEM at a density of 4000 cells/well. The cells allowed to attach overnight and then treated with E2 (10^−6 to 10^−10 M) without COMT-inhibitor or with 10 μM of COMT-inhibitor, 2-OHE2 (10^−5 to 10^−10 M) without COMT-I, or with 10 μM COMT-I, 2-OHE2, or 2-MeOHE2 (10^−5 to 10^−10 M). Control cells were treated with medium containing 10 μl of absolute ethanol. After 48 hours, the cells were harvested for the proliferation assay. For western blot analysis, the cells were seeded in 100 mm plates at final density of 2×10^6 cells/plate. […] Cells were harvested 48 hours after treatment and cell lysates were used for western blotting. A fluorometric assay, implementing Hoechst 33258 (bisbenzimide), was used for DNA quantitation. ELT3 cells (5×10^3 cells/well) were plated (described above). The cells were allowed to attach overnight at 37° C., and then the media were replaced with media containing the appropriate treatment. Control cells were treated with a 1:1000 dilution of absolute ethanol. The cells were incubated with the treatments for 48 hours, followed by cell lysis and DNA content determination using Hoechst dye solution (10 μl/100 ml distilled H2O). Fluorescence was measured (DyNA Quant 200; Hoefer Pharmacia Biotech) after excitation at 365 nm and fluorescence at 458 nm. Calf thymus DNA was used as a standard to determine DNA concentration."}, "VEGF": {"test_system": "VEGF", "experiment": "Western blot of VEGF protein expression in ELT3 cells", "conditions": "48 h, maximal inhibition at 10 μM", "protocol": "(§1) The Eker rat tumor-derived ELT-3 uterine leiomyoma cells were grown in DMEM medium supplemented with 10% fetal bovine serum and 1% antibiotics (containing 100 U/ml penicillin and 100 μg/ml streptomycin. The cells were maintained in the 100 mm tissue culture dishes at 37° C. air with 5% CO2 and 95% humidity. When experiments required the addition of exogenous compounds, cells were weaned by culturing for 48 h in phenol red-free medium containing 10% Charcoal-stripped fetal calf serum. For proliferation assays, cells were plated onto 24-well plates in DMEM at a density of 4000 cells/well. The cells allowed to attach overnight and then treated with E2 (10^−6 to 10^−10 M) without COMT-inhibitor or with 10 μM of COMT-inhibitor, 2-OHE2 (10^−5 to 10^−10 M) without COMT-I, or with 10 μM COMT-I, 2-OHE2, or 2-MeOHE2 (10^−5 to 10^−10 M). Control cells were treated with medium containing 10 μl of absolute ethanol. […]\n(§2) Immunoreactive proteins corresponding to VEGF, Cyclin D, Bcl-2, Bax, and β-actin were identified from total protein by western immunoblotting using specific monoclonal antibodies. […] After a 10-min spin at 10,000×g, the supernatant containing the total cell lysates were quantified using BCA Protein Assay Reagent (Pierce, Rockford, Ill.). […] The expression level of target proteins was quantitated densitometrically and normalized using β-actin expression."}, "cyclin D1": {"test_system": "cyclin D1", "experiment": "Western blot of cyclin D1 protein expression in ELT3 cells", "conditions": "48 h, maximal inhibition at 10 μM", "protocol": "as §1, §2"}, "Bcl2": {"test_system": "Bcl2", "experiment": "Western blot of Bcl2 protein expression in ELT3 cells", "conditions": "48 h, maximal inhibition at 10 μM", "protocol": "as §1, §2"}, "Bax": {"test_system": "Bax", "experiment": "Western blot of Bax protein expression in ELT3 cells", "conditions": "48 h", "protocol": "as §1, §2"}, "[1]": {"test_system": "estrogen response elements-luciferase reporter (AdERE-Luc) in ELT3 cells", "experiment": "AdERE-Luc reporter luciferase activity in ELT3 cells", "conditions": "for luciferase activity reduction compared to E2 (10^−8 M) alone: plus E2 10^−8 M", "description": "Transfection of ELT3 cells with recombinant ERE-Luciferase adenovirus vector was achieved by maintaining ELT 3 cells as described above. For infection with estrogen response elements-luciferase reporter adenoviral vector (Ad ERE-Luc), the cells were allowed to grow to 60-70% confluence and then infected with Ad ERE-Luc vector at multiplicity of infection (MOI) of 100 plaque-forming units (PFU)/cell for two hours in infection medium containing 2% FCS and 1% penicillin/streptomycin. Then, the infection media were removed and replaced with regular media. The transduction efficiency of the adenoviral vectors in ELT3 cells was tested using Ad LacZ vector. β-Galactosidase expression was detected in 95-100% of ELT3 cells at 48 h after infection with Ad LacZ at a 100 PFU. Therefore, subsequent experiments were performed using similar amounts (100 PFU/cell) of recombinant Ad ERE-Luc vector.\nELT3 cells transfected with AdERE-Luc were treated with E2 and with or without COMT-I or with different concentrations of 2-OHE2 (10^−10 to 10^−6 M) with or with out COMT-I (10 μM). After 48 h incubation with chemicals, cells were harvested with 100 μl of cell lysis buffer (Promega). Luciferase activity was determined using Luciferase Assay Kit (Promega) according to the manufacturer's instructions."}, "[2]": {"conditions": "COMT inhibitor 10^−5 M co-treatment, P<0.05"}}}
{"smiles": "COc1cc2c(cc1O)CC[C@@H]1[C@@H]2CC[C@]2(C)[C@@H](O)CC[C@@H]12", "note": "[2-MeOHE2, 2-Methoxyestradiol]", "values": [{"measurement": "cell proliferation reduction compared to the corresponding control", "setting": "ELT3 cells; 2-MeOHE2 5×10^−7 M", "value": 30, "unit": "%"}, {"measurement": "cell proliferation increase from the untreated control", "setting": "ELT3 cells; 2-MeOHE2 5×10^−8 M", "value": 31, "unit": "%"}, {"measurement": "cell proliferation reduction compared to the corresponding control", "setting": "ELT3 cells; 2-MeOHE2 10^−5 M", "value": 65, "unit": "%"}, {"measurement": "cell proliferation reduction compared to the corresponding control", "setting": "ELT3 cells; 2-MeOHE2 10^−6 M", "value": 51, "unit": "%"}, {"measurement": "cell proliferation reduction compared to the corresponding control", "setting": "ELT3 cells; 2-MeOHE2 10^−7 M", "value": 16, "unit": "%"}, {"measurement": "cell proliferation increase from the untreated control", "setting": "ELT3 cells; 2-MeOHE2 10^−8 M", "value": 24, "unit": "%"}, {"measurement": "cell proliferation increase from the untreated control", "setting": "ELT3 cells; 2-MeOHE2 10^−9 M", "value": 20, "unit": "%"}, {"measurement": "cell proliferation increase from the untreated control", "setting": "ELT3 cells; 2-MeOHE2 10^−10 M", "value": 15, "unit": "%"}, {"measurement": "VEGF protein expression", "setting": "VEGF", "value": "concentration-dependent inhibition"}, {"measurement": "cyclin D1 protein expression", "setting": "cyclin D1", "value": "concentration-dependent inhibition"}, {"measurement": "Bcl2 protein expression", "setting": "Bcl2", "value": "concentration-dependent inhibition"}, {"measurement": "Bax protein expression", "setting": "Bax", "value": "gradient increase"}]}
{"smiles": "C[C@]12CC[C@@H]3c4ccc(O)cc4CC[C@H]3[C@@H]1CC[C@@H]2O", "note": "[E2, β-Estradiol]", "values": [{"measurement": "concentration of maximum effect on ELT3 proliferation", "setting": "ELT3 cells; E2 alone, 48 h", "value": "10^−8 M"}, {"measurement": "maximum up-regulation of AdERE-Luciferase", "setting": "[1]; E2 10^−8 M", "value": 6, "unit": "fold"}]}
{"smiles": "C[C@]12CC[C@@H]3c4cc(O)c(O)cc4CC[C@H]3[C@@H]1CC[C@@H]2O", "note": "[2-OHE2, 2-Hydroxyestradiol]", "values": [{"measurement": "reduction in cell proliferation compared to the untreated control", "setting": "ELT3 cells; 2-OHE2 10^−6 M", "value": 21, "unit": "%"}, {"measurement": "reduction in cell proliferation compared to the untreated control", "setting": "ELT3 cells; 2-OHE2 10^−7 M", "value": 16, "unit": "%"}, {"measurement": "cell proliferation increase", "setting": "ELT3 cells; 2-OHE2 10^−8 M in the presence of E2 (10^−8 M)", "value": 33, "unit": "%"}, {"measurement": "cell proliferation increase from the control", "setting": "ELT3 cells; 2-OHE2 10^−8 M", "value": 61, "unit": "%"}, {"measurement": "cell proliferation increase", "setting": "ELT3 cells; 2-OHE2 10^−9 M in the presence of E2 (10^−8 M)", "value": 24, "unit": "%"}, {"measurement": "cell proliferation increase from the control", "setting": "ELT3 cells; 2-OHE2 10^−9 M", "value": 54, "unit": "%"}, {"measurement": "cell proliferation increase", "setting": "ELT3 cells; 2-OHE2 10^−10 M in the presence of E2 (10^−8 M)", "value": 10, "unit": "%"}, {"measurement": "cell proliferation increase from the control", "setting": "ELT3 cells; 2-OHE2 10^−10 M", "value": 19, "unit": "%"}, {"measurement": "luciferase activity reduction compared to E2 (10^−8 M) alone", "setting": "[1]; 2-OHE2 10^−6 M", "value": 39, "unit": "%"}, {"measurement": "luciferase activity reduction compared to E2 (10^−8 M) alone", "setting": "[1]; 2-OHE2 10^−7 M", "value": 32, "unit": "%"}, {"measurement": "luciferase activity reduction compared to E2 (10^−8 M) alone", "setting": "[1]; 2-OHE2 10^−8 M", "value": 32, "unit": "%"}, {"measurement": "luciferase activity reduction compared to E2 (10^−8 M) alone", "setting": "[1]; 2-OHE2 10^−10 to 10^−9 M", "value": 30, "unit": "%"}, {"measurement": "AdERE-Luc activity", "setting": "[1]; 2-OHE2, E2-free environment, concentration dependent", "value": "up-regulated"}]}
{"smiles": "O=C(c1cc(O)c(O)c([N+](=O)[O-])c1)c1ccccc1F", "note": "[COMT inhibitor, R0 41-0960]", "values": [{"measurement": "effect on the antiproliferative effect of high dose 2-OHE2", "setting": "ELT3 cells; [2]", "value": "augmented"}, {"measurement": "effect on the proliferative effect of low dose 2-OHE2", "setting": "ELT3 cells; [2]", "value": "consistently antagonized"}, {"measurement": "effect on E2-induced cell proliferation", "setting": "ELT3 cells; COMT inhibitor 10^−5 M with E2 10^−10 to 10^−6 M, P<0.05 at all estrogen concentrations", "value": "consistently inhibited"}, {"measurement": "effect on E2-induced AdERE-luciferase at higher E2 concentrations", "setting": "[1]; COMT inhibitor 10^−5 M, E2 10^-6 and 10^-5 M, P=0.056 and P=0.17", "value": "less pronounced"}, {"measurement": "AdERE-luciferase compared to treatment with E2 alone", "setting": "[1]; COMT inhibitor 10^−5 M, E2 10^-10 to 10^-7 M, P<0.05", "value": "significant down regulation"}]}
